Laboratory results taken from patent publication US10842845B2, “Oxytocin improves treatment of obstructive sleep apnea” (THE GEORGE WASHINGTON UNIVERSITY, priority 2014, dated 2020).
Entries after “also recorded” stand apart in the source; their conditions may differ.

Legend:
[1] = tested on: Patients recently diagnosed with OSA; experiment: Intranasal oxytocin in patients recently diagnosed with OSA (polysomnography, sleep quality score); assay type: in vivo, human; conditions: 40 IU oxytocin intranasally about one hour prior to sleeping
Description: Patients recently diagnosed with OSA were recruited to test the effect of oxytocin administration on heart rate, apnea-hypopnea index, oxygen saturation, apnea duration, arousal index etc. The study is approved by the FDA (IND #120989). Patients were administered 40 IU of oxytocin intranasally about one hour prior to sleeping.
The following eight outcomes were compared in the same patients prior to and after administration with oxytocin: • basal heart rate before sleep (primary outcome) • mean changes in heart rate with apneic and hypopneic events (primary outcome) • apnea-hypopnea index (secondary outcome) • percentage of time spent by the patient with oxygen saturations: >90%, >80% but <90%, and <80% (secondary outcome) • duration of apneas • oxygen desaturation during apneas (expressed as adverse desaturations in percent oxygen) • numbers of arousals (expressed per hour) • sleep quality
The following information was recorded for each patient before and after the use of intranasal oxytocin:
• a. Basal heart rate before sleep • b. Apnea-hypopnea index • c. Mean changes in heart rate with apneic and hypopneic events • d. Percentage of time spent by the patient with oxygen saturations: >90%, >80% but <90%, and <80%. • e. Duration of apneas • f. Oxygen desaturation during apneas (expressed as adverse desaturations in percent oxygen) • g. Numbers of arousals (expressed per hour) • h. Sleep quality 3. Standard of care sleep study data using PSG: Polysomnography (PSG) monitors many body functions during sleep, including brain (EEG), eye movements (EOG), muscle activity or skeletal muscle activation (EMG), heart rhythm (ECG), respiratory airflow, thoracic and abdominal respiratory effort, body position, limb movement, and oxygen saturation using pulse oximetry. Recording and scoring was done according to the standards set by the American Academy of Sleep Medicine. 4. Sleep quality score: Patients were asked to rank their responses using the scale of 1-5 for a set of empirical factors: • 1—Strongly disagree • 2—Slightly disagree • 3—Neither agree nor disagree • 4—Slightly agree • 5—Strongly agree Empirical Factors: • I feel more refreshed than usual this morning • My quality of sleep last night was better than usual • I slept deeper than usual last night • I woke up fewer times than usual last night • I slept longer than usual last night • I feel better overall than usual this morning

rats = conditions: acute icy infusion of oxytocin; cited from earlier work
[2] = same patients prior to and after administration

With `CC[C@H](C)[C@@H]1NC(=O)[C@H](Cc2ccc(O)cc2)NC(=O)[C@@H](N)CSSC[C@@H](C(=O)N2CCC[C@H]2C(=O)N[C@@H](CC(C)C)C(=O)NCC(N)=O)NC(=O)[C@H](CC(N)=O)NC(=O)[C@H](CCC(N)=O)NC1=O` [oxytocin] the duration of apnea [1, 2] was “reduces”, the number of arousals/hour [1, 2] was “decreases; also recorded: reduces” and the oxygen desaturation [1, 2] was “reduces”. The “sleep quality or sleep satisfaction” value ([1]; score on scale of 1-5 for empirical factors) was “improves”, the “high-frequency activity in the electroencephalogram (EEG) within non-REMS” value (rats) was “augmented” and the “non-REMS and REMS” value (rats) was “transient reduction”. For the same compound, the sleep onset latency (rats) was “delayed”.
